Legend:
Test in all cases: KinomeScan competition binding assay
[1] = molecular target: T1, FLT3 (D835Y) (Homo sapiens, UniProt P36888, D835Y); settings: 10 μM compound
T1 construct: purchased KinomeScan, a division of Ambit Biosciences
T1 sequence (P36888 27-993 D835Y): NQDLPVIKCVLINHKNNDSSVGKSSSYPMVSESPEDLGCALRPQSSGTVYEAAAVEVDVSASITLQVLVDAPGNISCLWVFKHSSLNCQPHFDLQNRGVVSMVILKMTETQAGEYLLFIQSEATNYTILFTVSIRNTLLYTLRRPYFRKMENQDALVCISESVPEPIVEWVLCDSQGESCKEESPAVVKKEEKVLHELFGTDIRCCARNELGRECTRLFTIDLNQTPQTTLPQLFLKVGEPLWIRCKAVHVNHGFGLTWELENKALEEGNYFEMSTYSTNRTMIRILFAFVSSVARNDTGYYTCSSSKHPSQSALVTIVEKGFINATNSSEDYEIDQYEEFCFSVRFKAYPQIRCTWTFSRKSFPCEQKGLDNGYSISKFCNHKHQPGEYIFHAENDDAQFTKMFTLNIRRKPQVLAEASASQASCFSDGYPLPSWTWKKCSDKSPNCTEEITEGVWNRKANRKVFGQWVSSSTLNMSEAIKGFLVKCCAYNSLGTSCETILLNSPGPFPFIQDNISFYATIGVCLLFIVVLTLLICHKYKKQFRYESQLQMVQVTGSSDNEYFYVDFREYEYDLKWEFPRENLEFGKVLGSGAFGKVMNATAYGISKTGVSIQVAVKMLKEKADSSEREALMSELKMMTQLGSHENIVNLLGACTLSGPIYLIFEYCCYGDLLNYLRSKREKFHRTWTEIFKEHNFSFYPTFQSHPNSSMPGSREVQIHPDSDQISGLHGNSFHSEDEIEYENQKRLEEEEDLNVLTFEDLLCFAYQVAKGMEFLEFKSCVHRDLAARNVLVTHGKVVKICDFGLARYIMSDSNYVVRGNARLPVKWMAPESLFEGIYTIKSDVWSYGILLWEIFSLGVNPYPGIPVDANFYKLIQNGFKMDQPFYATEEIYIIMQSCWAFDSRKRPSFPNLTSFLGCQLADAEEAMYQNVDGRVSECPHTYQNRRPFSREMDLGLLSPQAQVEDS
How it was run: (§1)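 Binding, not catalytic activity, is measured here. Compound displacement of DNA-tagged kinase from an immobilized ligand directed at the ATP site is read by quantitative PCR and given as POC or Kd.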

[2] = molecular target: T2, PIK3CG (Homo sapiens, UniProt P48736); settings: 10 μM compound
T2 construct: purchased KinomeScan, a division of Ambit Biosciences
T2 sequence (P48736 whole entry): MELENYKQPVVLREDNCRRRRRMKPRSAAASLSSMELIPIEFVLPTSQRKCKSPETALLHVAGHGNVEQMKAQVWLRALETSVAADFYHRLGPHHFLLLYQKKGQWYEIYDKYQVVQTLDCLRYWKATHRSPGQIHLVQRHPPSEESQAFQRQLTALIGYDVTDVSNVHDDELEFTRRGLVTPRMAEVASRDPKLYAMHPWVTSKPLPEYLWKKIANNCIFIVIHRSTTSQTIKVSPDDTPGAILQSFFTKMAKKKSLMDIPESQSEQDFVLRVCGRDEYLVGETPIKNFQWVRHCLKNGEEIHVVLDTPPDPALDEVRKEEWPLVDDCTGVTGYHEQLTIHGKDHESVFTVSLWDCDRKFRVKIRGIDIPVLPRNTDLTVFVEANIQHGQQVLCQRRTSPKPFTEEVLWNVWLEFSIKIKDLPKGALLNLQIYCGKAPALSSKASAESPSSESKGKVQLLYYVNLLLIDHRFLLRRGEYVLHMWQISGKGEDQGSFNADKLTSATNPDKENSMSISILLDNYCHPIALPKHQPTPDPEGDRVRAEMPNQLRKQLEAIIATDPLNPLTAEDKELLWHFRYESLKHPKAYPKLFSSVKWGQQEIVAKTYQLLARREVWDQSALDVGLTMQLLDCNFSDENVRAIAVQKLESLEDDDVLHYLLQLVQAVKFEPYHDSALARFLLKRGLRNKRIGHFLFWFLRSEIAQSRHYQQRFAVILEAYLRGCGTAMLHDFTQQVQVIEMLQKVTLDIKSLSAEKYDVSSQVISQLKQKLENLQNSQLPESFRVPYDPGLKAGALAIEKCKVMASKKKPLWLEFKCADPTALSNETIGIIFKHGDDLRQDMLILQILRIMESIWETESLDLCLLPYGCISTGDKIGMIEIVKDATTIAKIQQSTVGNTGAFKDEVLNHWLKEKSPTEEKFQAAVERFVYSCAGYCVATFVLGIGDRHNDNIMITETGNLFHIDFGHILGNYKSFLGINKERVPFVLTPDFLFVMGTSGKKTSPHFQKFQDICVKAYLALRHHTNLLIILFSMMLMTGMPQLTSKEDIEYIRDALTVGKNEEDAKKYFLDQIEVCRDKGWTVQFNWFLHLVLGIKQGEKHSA
How it was run: as §1

[3] = molecular target: T3, MEK5 (Homo sapiens, UniProt Q13163); settings: 10 μM compound
T3 construct: purchased KinomeScan, a division of Ambit Biosciences
T3 sequence (Q13163 1-448): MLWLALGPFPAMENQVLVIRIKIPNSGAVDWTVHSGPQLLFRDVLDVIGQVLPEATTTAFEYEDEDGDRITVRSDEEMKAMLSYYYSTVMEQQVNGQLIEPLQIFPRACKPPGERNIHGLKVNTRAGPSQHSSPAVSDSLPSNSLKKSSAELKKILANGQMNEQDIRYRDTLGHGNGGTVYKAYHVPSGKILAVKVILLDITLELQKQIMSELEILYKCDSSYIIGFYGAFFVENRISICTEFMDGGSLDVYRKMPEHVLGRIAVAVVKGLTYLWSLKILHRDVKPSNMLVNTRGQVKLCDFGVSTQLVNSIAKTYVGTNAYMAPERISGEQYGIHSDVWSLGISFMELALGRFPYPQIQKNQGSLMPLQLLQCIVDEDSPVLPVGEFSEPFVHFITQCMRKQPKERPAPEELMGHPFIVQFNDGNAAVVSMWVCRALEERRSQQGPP
How it was run: as §1

[4] = molecular target: T4, PIP5K2C (Homo sapiens, UniProt Q8TBX8); settings: 10 μM compound
T4 construct: purchased KinomeScan, a division of Ambit Biosciences
T4 sequence (Q8TBX8 1-421): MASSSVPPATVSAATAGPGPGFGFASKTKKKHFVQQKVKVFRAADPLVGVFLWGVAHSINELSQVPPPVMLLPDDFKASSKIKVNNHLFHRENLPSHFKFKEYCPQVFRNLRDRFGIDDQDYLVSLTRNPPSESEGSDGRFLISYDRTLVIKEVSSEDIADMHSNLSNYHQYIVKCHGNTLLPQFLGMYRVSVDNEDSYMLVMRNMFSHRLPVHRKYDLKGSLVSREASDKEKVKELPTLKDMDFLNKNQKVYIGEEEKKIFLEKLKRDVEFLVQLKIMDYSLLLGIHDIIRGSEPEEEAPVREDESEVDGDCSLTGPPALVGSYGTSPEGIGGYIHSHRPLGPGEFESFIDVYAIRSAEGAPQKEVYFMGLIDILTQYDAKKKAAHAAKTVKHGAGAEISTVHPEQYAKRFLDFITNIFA
How it was run: as §1

[5] = molecular target: T5, PIK3CA (I800L) (Homo sapiens, UniProt P42336, I800L); settings: 10 μM compound
T5 construct: purchased KinomeScan, a division of Ambit Biosciences
T5 sequence (P42336 whole entry I800L): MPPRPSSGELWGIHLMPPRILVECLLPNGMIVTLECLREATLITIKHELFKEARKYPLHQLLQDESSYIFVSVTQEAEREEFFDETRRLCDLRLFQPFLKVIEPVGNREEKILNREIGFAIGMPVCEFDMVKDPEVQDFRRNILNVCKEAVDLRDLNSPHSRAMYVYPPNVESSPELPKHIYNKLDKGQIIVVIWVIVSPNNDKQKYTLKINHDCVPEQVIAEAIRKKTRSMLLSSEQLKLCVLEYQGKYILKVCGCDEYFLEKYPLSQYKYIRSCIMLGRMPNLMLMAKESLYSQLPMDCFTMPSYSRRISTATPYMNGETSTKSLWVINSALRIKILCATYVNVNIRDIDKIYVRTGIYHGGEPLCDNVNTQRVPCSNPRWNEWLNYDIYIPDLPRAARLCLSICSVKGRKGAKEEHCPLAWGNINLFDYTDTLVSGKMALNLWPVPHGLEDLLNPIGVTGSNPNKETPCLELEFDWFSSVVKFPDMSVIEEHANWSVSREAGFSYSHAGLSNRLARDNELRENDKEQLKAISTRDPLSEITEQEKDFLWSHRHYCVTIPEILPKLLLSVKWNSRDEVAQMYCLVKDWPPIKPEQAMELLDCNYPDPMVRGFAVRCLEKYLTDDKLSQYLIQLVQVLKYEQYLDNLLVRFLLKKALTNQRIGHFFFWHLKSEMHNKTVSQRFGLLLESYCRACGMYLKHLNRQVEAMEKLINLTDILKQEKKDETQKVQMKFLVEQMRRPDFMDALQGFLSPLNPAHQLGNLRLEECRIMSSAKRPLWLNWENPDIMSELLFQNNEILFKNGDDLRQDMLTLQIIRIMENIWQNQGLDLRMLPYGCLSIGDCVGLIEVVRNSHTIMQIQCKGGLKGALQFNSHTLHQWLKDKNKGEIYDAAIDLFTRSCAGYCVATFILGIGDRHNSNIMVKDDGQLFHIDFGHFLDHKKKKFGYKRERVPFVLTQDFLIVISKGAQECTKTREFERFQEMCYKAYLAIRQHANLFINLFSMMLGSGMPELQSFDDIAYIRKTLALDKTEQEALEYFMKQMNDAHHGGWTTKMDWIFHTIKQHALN
How it was run: as §1

[6] = molecular target: T6, CDK19 (Homo sapiens, UniProt Q9BWU1); settings: for inhibition of CDK19: 10 μM; for POC ligand binding, CDK19: 10 μM compound; for Kd: read-out: CDK19 inhibition (Kd)
T6 construct: purchased KinomeScan, a division of Ambit Biosciences
T6 sequence (Q9BWU1 whole entry): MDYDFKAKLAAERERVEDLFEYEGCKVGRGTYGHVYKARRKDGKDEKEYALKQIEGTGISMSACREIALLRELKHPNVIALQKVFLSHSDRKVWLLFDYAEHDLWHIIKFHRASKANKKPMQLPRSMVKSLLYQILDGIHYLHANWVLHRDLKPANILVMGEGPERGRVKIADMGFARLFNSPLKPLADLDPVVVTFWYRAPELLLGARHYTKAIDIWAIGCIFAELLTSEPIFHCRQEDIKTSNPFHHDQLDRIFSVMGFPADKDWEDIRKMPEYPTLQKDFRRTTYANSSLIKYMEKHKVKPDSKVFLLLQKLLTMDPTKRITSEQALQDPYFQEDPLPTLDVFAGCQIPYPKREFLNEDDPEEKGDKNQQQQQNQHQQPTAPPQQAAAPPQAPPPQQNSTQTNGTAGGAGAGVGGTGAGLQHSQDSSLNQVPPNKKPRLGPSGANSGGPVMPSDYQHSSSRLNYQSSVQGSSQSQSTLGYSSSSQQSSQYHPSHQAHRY
How it was run: as §1

Compound	POC ligand binding, FLT3 (D835Y) [1]	POC ligand binding, PIK3CG [2]	POC ligand binding, MEK5 [3]	POC ligand binding, PIP5K2C [4]	POC ligand binding, PIK3CA (I800L) [5]	inhibition of CDK19 [6]	POC ligand binding, CDK19 [6]	Kd [6]	POC ligand binding, FLT3 (D835Y) ([1]; 10 µM)	POC ligand binding, MEK5 ([3]; 10 µM)	POC ligand binding, PIP5K2C ([4]; 10 µM)	POC ligand binding, PIK3CA (I800L) ([5]; 10 µM)	POC ligand binding, CDK19 ([6]; 10 µM)
N#Cc1ccc2ncnc(NCCc3ccccc3)c2c1 [compound 1]	19 POC	8 POC	18 POC	1.2 POC	17 POC	> 99%	0.05 POC	310 nM					
N#Cc1ccc2ncnc(NCc3ccc4ccccc4c3)c2c1 [compound 14]		35 POC						1100 nM	32 POC	13 POC	16 POC	62 POC	0.1 POC
N#Cc1ccc2ncnc(NCc3ccc(Cl)cc3)c2c1 [compound 20]	69 POC	40 POC	62 POC	2.4 POC	73 POC		0 POC	99 nM					
N#Cc1ccc2ncnc(NCCc3ccc4ccccc4c3)c2c1 [compound 26]	55 POC	58 POC	61 POC	39 POC	81 POC	94.6%	5.6 POC	160 nM					
N#Cc1ccc2ncnc(NCc3ccc4ccccc4c3)c2c1 [compound 43]		35 POC						190 nM	76 POC	41 POC	4 POC	87 POC	0.25 POC
COc1ccc2ncnc(NCCc3ccccc3)c2c1 [compound 44]	55 POC	88 POC	59 POC	59 POC	86 POC		9.2 POC						
CC(C)CNc1ncnc2ccc(C(F)(F)F)cc12 [compound 45]	4.7 POC	82 POC	46 POC	60 POC	83 POC		21 POC						
CCCNc1ncnc2ccc(N3CCOCC3)cc12 [compound 46]	19 POC	94 POC	17 POC	61 POC	83 POC		100 POC						

From US8598344B2, “CDKI pathway inhibitors and uses thereof” (Senex Biotechnology, priority 2009, dated 2013)
